The record followed here is PMC9197583 (Chemical communications (Cambridge, England), 2022).

In the test the target is T1, NrtA (Synechocystis sp. PCC 6803, UniProt P73452).
T1 sequence (P73452 30-446): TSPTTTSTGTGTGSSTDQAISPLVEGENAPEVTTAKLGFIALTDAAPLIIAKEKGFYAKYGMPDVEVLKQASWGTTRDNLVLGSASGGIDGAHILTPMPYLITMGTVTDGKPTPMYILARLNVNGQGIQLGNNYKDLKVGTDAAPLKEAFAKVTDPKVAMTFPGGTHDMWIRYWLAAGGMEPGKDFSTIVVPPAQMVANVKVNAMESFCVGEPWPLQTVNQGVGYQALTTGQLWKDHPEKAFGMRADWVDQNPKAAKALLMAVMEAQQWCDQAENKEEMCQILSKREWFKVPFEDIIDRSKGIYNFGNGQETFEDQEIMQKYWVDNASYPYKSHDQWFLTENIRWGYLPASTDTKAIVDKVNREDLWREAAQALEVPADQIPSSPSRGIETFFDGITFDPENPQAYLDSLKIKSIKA
The test can be described thus: isothermal titration calorimetry. The test is classed as binding. A general note: In ITC the heat of successive injections is recorded.

A word on the Kd: it is a measure of binding affinity in units of concentration.

`O=NO` [nitrite] showed a dissociation constant Kd of 230 ± 33 nM.

As for `O=[N+]([O-])O` [nitrate], the affinity, expressed as Kd, was 57 ± 23 nM.
